According to PubChem BioAssay (NCI):
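Compound exposure: 48 hours, 5 concentrations, 96-well plates. TGI is the concentration that stops growth completely.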

What was measured:
Test in all cases: growth of human tumour cells (NCI), 48 h
HOP-92 NSCLC = system: HOP-92 NSCLC
786-0 renal = system: 786-0 renal
SF-268 CNS = system: SF-268 CNS
LOX IMVI melanoma = system: LOX IMVI melanoma
HL-60(TB) leukemia = system: HL-60(TB) leukemia
HCC-2998 colon = system: HCC-2998 colon
HOP-62 NSCLC = system: HOP-62 NSCLC
SR leukemia = system: SR leukemia
KM12 colon = system: KM12 colon
SF-539 CNS = system: SF-539 CNS
UO-31 renal = system: UO-31 renal
A498 renal = system: A498 renal
OVCAR-3 ovarian = system: OVCAR-3 ovarian
ACHN renal = system: ACHN renal
SK-MEL-28 melanoma = system: SK-MEL-28 melanoma
EKVX NSCLC = system: EKVX NSCLC
A549 NSCLC = system: A549 NSCLC
T-47D breast = system: T-47D breast
NCI/ADR-RES ovarian = system: NCI/ADR-RES ovarian
PC-3 prostate = system: PC-3 prostate

SMILES | TGI (HOP-92 NSCLC) | TGI (786-0 renal) | TGI (SF-268 CNS) | TGI (LOX IMVI melanoma) | TGI (HL-60(TB) leukemia) | TGI (HCC-2998 colon) | TGI (HOP-62 NSCLC) | TGI (SR leukemia) | TGI (KM12 colon) | TGI (SF-539 CNS) | TGI (UO-31 renal) | TGI (A498 renal) | TGI (OVCAR-3 ovarian) | TGI (ACHN renal) | TGI (SK-MEL-28 melanoma) | TGI (EKVX NSCLC) | TGI (A549 NSCLC) | TGI (T-47D breast) | TGI (NCI/ADR-RES ovarian) | TGI (PC-3 prostate)
O=C(CCN1CCC(CCO)CC1)Nc1ccc2c(c1)C(=O)c1ccc(NC(=O)CCN3CCC(CCO)CC3)cc1C2=O | > 100 µM | 27.2 µM | 45.7 µM | 64 µM | > 100 µM | 88.7 µM | 37.5 µM | 55.7 µM | 10.5 µM | 19.4 µM | > 100 µM | 92.8 µM | 24.7 µM | > 100 µM | > 100 µM | > 100 µM | > 100 µM |  |  | 
COc1ccc(NS(=O)c2c(C)cc(C)cc2C)cc1 (stereo not drawn) |  | > 100 µM | > 100 µM | > 100 µM | > 100 µM | > 100 µM | > 100 µM | > 100 µM | 98.8 µM | 53.3 µM | 61.1 µM |  | > 100 µM | > 100 µM | > 100 µM | > 100 µM | > 100 µM | > 100 µM | > 100 µM | 
CC1CCC2CC1NC(=O)CCOCCC(=O)NC2(C)C (stereo not drawn) | > 100 µM | > 100 µM | > 100 µM | > 100 µM | > 100 µM | > 100 µM | > 100 µM | > 100 µM | > 100 µM | > 100 µM | > 100 µM |  | > 100 µM |  | > 100 µM | > 100 µM | > 100 µM | > 100 µM |  | > 100 µM
COc1ccc2[nH]c3c4c(cc(-c5ccccc5)c3c2c1)C(=O)N(c1ccccc1)C4=O | 74 µM | 29.5 µM | 97.1 µM | > 92 µM | > 100 µM | > 100 µM | > 71.3 µM | 19.9 µM | > 100 µM | 16.5 µM | > 72 µM | > 73.8 µM | 55.2 µM | > 100 µM | > 100 µM | > 100 µM | > 100 µM |  |  | 
CC(=O)Oc1ccc(Nn2c3ccccc3c3ccccc32)c(C)c1 | 64 µM | 41.7 µM | > 100 µM |  | 63.2 µM | 79.5 µM | > 100 µM | 65.5 µM | > 100 µM |  | > 100 µM |  | > 100 µM |  | > 100 µM |  | > 100 µM |  |  | 
COC(=O)CC(CNC(=O)OCc1ccccc1)OCc1ccc(OC)cc1 (stereo not drawn) | > 100 µM | > 100 µM |  | > 100 µM | > 100 µM | > 100 µM |  | > 100 µM | > 100 µM | > 100 µM | > 100 µM | > 100 µM | > 100 µM | > 100 µM | > 100 µM | > 100 µM | > 100 µM |  | > 100 µM | > 100 µM
c1ccc2cc(CNCCCCNCCCNCc3ccc4ccccc4c3)ccc2c1 | 3.05 µM | 0.323 µM | 2.83 µM | 0.358 µM |  | 0.944 µM | 3.31 µM |  | 0.97 µM | 3.47 µM | 2.83 µM | 4.42 µM | 3.52 µM | 2.92 µM | 3.34 µM | 3.05 µM | 4.25 µM |  | 3.47 µM | 3.3 µM
Cc1cccc2c1c(=O)c1c(O)cc3c(c1n2C)C=CC(C)(C)O3 | > 100 µM | > 100 µM | > 100 µM | > 100 µM | > 100 µM | > 100 µM | > 100 µM | > 100 µM | > 100 µM | > 100 µM |  | > 100 µM | > 100 µM | > 100 µM | > 100 µM | > 100 µM | > 100 µM |  | > 100 µM | > 100 µM
O=c1oc2ccc3ccccc3c2cc1-c1cn2c(n1)sc1ccccc12 | > 100 µM | > 100 µM | > 100 µM | > 100 µM | > 100 µM | > 100 µM | > 100 µM |  | > 100 µM |  | > 100 µM | > 100 µM | > 100 µM | > 100 µM | > 100 µM | > 100 µM | > 100 µM |  | > 100 µM | > 100 µM
O=C(Cc1ccccc1)N/N=C(/c1nc2ccc([N+](=O)[O-])cc2[nH]c1=O)C(O)c1ccc(C(O)/C(=N/NC(=O)Cc2ccccc2)c2nc3ccc([N+](=O)[O-])cc3[nH]c2=O)cc1 (stereo not drawn) | > 100 µM | > 100 µM | > 100 µM | > 100 µM | > 100 µM | > 100 µM | > 100 µM |  |  | > 100 µM |  | > 100 µM | > 100 µM | > 100 µM | > 100 µM | > 100 µM | > 100 µM |  |  | 
CN(C)CC1CCCCCCCCCCCCC(CN(C)C)C1=O (stereo not drawn) | 26.3 µM | 21.7 µM | 26 µM | 21.3 µM |  | 22.2 µM | 30.3 µM | 14 µM | 24 µM | 28.7 µM | 26.8 µM | 33 µM | 30.7 µM | 29.9 µM | 26.6 µM | 37.3 µM | 29.6 µM |  |  | 
CSC1=C(C#N)C(=O)N(c2ccc(C)cc2)C(=O)C1C#N (stereo not drawn) | 82 µM | > 100 µM | > 100 µM | > 100 µM | > 100 µM | > 100 µM | > 100 µM | > 100 µM | > 100 µM | > 100 µM | > 100 µM | > 100 µM | > 100 µM | > 100 µM | > 100 µM | > 100 µM | > 100 µM | > 100 µM |  | > 100 µM
C/C1=C/C[C@@H](/C(C)=C/c2csc(C)n2)OC(=O)C[C@H](O)C(C)(C)C(=O)[C@H](C)[C@@H](O)[C@@H](C)CCC1 | 0.302 µM | 0.228 µM |  | 0.143 µM |  | 0.125 µM | 0.259 µM |  | 0.196 µM | < 0.0001 µM | 0.181 µM |  | 0.173 µM | 0.323 µM |  | 0.215 µM | 0.181 µM | 0.361 µM | 0.000238 µM | 0.193 µM
O=[N+]([O-])c1ccc(CN=C2NNS(=O)(=O)c3ccccc32)cc1 | > 100 µM | > 100 µM | > 100 µM | > 100 µM | > 100 µM | > 100 µM |  | 99.7 µM | > 100 µM | > 100 µM | > 100 µM | > 100 µM | > 100 µM | > 100 µM |  | > 100 µM | > 100 µM |  |  | 
